Laboratory results as given in patent EP2662081A1, “Therapeutic use of indole-dihydro-imidazole derivatives” (NOSCIRA, S.A., priority 2012, dated 2013).

Tests used:
[1] = target: T1, human recombinant GSK3β (N-terminal 6His-tagged recombinant enzyme with an H350L mutation) (Homo sapiens, UniProt P49841); test: GSK-3 assay (Z'-LYTE FRET enzymatic activity); type: biochemical; details: 2 nM enzyme, 12.5 µM ATP, 2 µM Ser/Thr 9 peptide, 60 min at room temperature; concentration in M units; read-out: GSK-3 inhibition pEC50 average (converted)
T1 construct: 6His (N); purchased Millipore (Billerica, MA, USA)
Description: The enzymatic activity of GSK3β was determined with a commercial system based on the Z'-LYTE® technology, available from Life Technologies (Carlsbad, CA, USA), using human recombinant GSK3β (N-terminal 6His-tagged recombinant enzyme with an H350L mutation) from Millipore (Billerica, MA, USA) as the enzyme source. This technology utilizes the fluorescence resonance energy transfer ("FRET") process between fluorescein and coumarin. The assay principle is based on the differential sensitivity of phosphorylated and non-phosphorylated peptide to proteolytic cleavage, which precludes the energy transfer process between the two fluorophores attached to both sides of the cleavage site. […] The assay is performed in 384-well black plates, in a final volume of 10 µl, with 2 nM enzyme concentration in 50 mM Hepes pH 7.5, 50 mM MgCl2, 5 mM EGTA and 0.05% Brij-35, using 12.5 µM ATP and 2 µM substrate peptide. The latter is a synthetic peptide, provided by Invitrogen under the commercial name "Ser/Thr 9 peptide", and it is based upon the sequence of a GSK3β substrate protein (glycogen synthase I) containing Ser-641. The peptide is labeled at both ends with fluorescein and coumarin. The assay is carried out in the presence of different concentrations of the tested compound, at a final 1 % (v/v) DMSO concentration. After a 60 min incubation at room temperature, 5 µl of a commercial protease solution (sold by the same vendor in the assay kit) is added and a subsequent 1h incubation at room temperature is performed, before adding 5 µl of a suitable "stop solution", also provided by the vendor in the kit. After that, fluorescence intensity is recorded, monitoring emission at both 445 and 520 nm, upon excitation at 400 nm. An emission ratio is finally calculated, using the quotient among the emission at 445 nm divided by that at 520 nm.
The emission ratios for each concentration of compound are finally used to calculate the pEC50 value, according to the procedure described above for Cdk5.

[2] = target: T2, human recombinant Cdk5/p35 heterodimer (Homo sapiens, UniProt Q00535); test: Cdk5 assay (Z'-LYTE FRET enzymatic activity); type: biochemical; details: 10 nM enzyme, 12.5 µM ATP, 2 µM Ser/Thr 12 peptide, 60 min at room temperature; concentration in M units; read-out: Cdk5 inhibition pEC50 average (converted)
T2 construct: purchased Invitrogen (Life Technologies)
Description: The enzymatic activity of Cdk5 was determined with a commercial system based on the Z'-LYTE® technology, available from Life Technologies (Carlsbad, CA, USA), using human recombinant Cdk5/p35 heterodimer, also available from Invitrogen as the enzyme source. This technology utilizes the fluorescence resonance energy transfer ("FRET") process between fluorescein and coumarin. The assay principle is based on the differential sensitivity of phosphorylated and non-phosphorylated peptide to proteolytic cleavage, which precludes the energy transfer process between the two fluorophores attached to both sides of the cleavage site. […] The assay is performed in 384-well black plates, in a final volume of 10 µl, with 10 nM enzyme concentration, in 50 mM Hepes pH 7.5, 50 mM MgCl2, 5 mM EGTA and 0.05% Brij-35, using 12.5 µM ATP and 2 µM substrate peptide. The latter is a synthetic peptide provided by Invitrogen, under the commercial name "Ser/Thr 12 peptide", and it is based upon the sequence of Cdk7, containing Ser-164 and a (Ser/Thr)-Pro-X-(Lys/Arg) consensus sequence, wherein X is any residue. The peptide is labeled at both ends with fluorescein and coumarin. The assay is carried out in the presence of different concentrations of the tested compound, at a final 1% (v/v) DMSO concentration. After a 60 min incubation, at room temperature, 5 µl of a commercial protease solution (sold by the same vendor in the assay kit) is added and a subsequent 1h incubation at room temperature is performed, before adding 5 µl of a suitable "stop solution", also provided by the vendor in the kit. After that, fluorescence intensity is recorded, monitoring emission at both 445 and 520 nm, upon excitation at 400 nm. An emission ratio is finally calculated, using the quotient among the emission at 445 nm divided by that at 520 nm.
The emission ratio of each tested sample is normalized to that of the control wells, so that for every compound concentration the percentage of inhibition is calculated by using the following equation: % Inhibition = 100⋅(E-S)/(E-B) [formula] where "S" is the emission from the wells with the tested sample, "E" is the average emission from control wells with full enzyme activity and "B" is the average emission from wells with full enzyme inhibition. Inhibition values obtained for every compound concentration are finally used to calculate the pEC50 of the tested compound, this parameter being the negative value of the logarithm of the compound concentration, in M units, causing 50% of its maximum effect (i.e., the higher the pEC50 value the higher the potency of the compound). For that purpose the data were fitted to the following equation using the nonlinear regression function of GraphPad™ Prism 5.0 (GraphPad Software Inc.): % Inhibition = L + (H-L)/(1 + 10^(((logC+pEC50))^N)) [formula] where "L" is the lower asymptote of the theoretical sigmoidal curve, "H" is the higher asymptote, "C" is the concentration of compound in M units and "N" is the Hill coefficient.

T1 sequence (P49841 whole entry, stated change not applied): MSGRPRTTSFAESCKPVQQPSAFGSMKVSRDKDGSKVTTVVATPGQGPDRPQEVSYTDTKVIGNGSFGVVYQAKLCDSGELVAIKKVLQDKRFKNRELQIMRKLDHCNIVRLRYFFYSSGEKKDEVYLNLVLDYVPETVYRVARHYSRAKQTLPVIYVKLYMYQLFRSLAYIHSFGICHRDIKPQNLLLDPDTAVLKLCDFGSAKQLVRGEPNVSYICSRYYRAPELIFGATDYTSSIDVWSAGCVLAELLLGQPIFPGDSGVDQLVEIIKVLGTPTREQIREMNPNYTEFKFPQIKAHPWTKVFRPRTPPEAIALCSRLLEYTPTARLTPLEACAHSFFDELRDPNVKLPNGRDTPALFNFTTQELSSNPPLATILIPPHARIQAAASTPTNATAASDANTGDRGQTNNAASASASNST
T2 sequence (Q00535 whole entry): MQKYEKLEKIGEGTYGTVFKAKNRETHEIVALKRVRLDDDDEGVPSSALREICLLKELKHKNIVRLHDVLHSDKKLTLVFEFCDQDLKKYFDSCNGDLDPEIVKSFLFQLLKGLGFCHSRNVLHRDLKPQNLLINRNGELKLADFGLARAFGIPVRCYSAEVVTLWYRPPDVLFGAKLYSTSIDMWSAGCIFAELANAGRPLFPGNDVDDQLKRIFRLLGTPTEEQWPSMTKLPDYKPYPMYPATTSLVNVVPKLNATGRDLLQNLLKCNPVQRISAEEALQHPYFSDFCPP
T2 sequence (Q15078 whole entry partner): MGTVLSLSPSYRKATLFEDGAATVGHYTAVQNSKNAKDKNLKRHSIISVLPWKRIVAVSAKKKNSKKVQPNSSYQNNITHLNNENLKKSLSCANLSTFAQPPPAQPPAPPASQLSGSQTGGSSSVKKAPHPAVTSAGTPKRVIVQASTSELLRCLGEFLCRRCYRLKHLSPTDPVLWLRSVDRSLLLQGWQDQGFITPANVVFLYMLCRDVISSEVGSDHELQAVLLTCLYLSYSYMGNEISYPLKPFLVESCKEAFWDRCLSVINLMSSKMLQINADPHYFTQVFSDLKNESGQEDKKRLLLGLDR

Structure (SMILES)	EC50 [1] [µM]	EC50 [2] [µM]
CN1C(=N)NCC1c1c(C(=O)O)[nH]c2cc(O)c(Br)cc12 (centres unmarked) [Compound 3]	11.2	0.0955
CN1C(=N)N(C)C(c2c(C(=O)O)[nH]c3cc(O)c(Br)cc23)C1O (centres unmarked) [Compound 6]	8.32	0.049
CN1CC(c2c(C(=O)O)[nH]c3ccc(Br)cc23)N(C)C1=N (centres unmarked) [Compound 2]	74.1	2.82
CN1C(=N)NCC1c1c(C(=O)O)[nH]c2ccc(Br)cc12 (centres unmarked) [Compound 1]	35.5	1.1
CN1CC(c2c(C(=O)O)[nH]c3cc(O)c(Br)cc23)N(C)C1=N (centres unmarked) [Compound 4]	15.5	0.0741
CN1C(=N)N(C)C(c2c(C(=O)O)[nH]c3ccc(Br)cc23)C1O (centres unmarked) [Compound 5]	97.7	3.09
CN1C(N)=NCC1c1c(C(=O)O)[nH]c2ccccc12 (centres unmarked) [Compound 7]	42.7	0.933
